Results on eleven compounds are retold here after PubChem BioAssay (NCI).

Test systems include NCI-H23 lung; SR leukemia; SF-539 CNS; MALME-3M melanoma; SW-620 colon; SN12C renal; SF-268 CNS; UACC-62 melanoma; HCC-2998 colon; NCI-H460 lung.
Assay in all cases: inhibition of tumour cell growth, NCI panel, 48 h

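Assay format: 96-well plates, 48-hour exposure. The concentration for 50% growth inhibition is given as GI50. TGI denotes the concentration required for complete inhibition of growth.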 Bounds are passed on as bounds.

Regarding `CN(C)c1nc(=Nc2cccc(Cl)c2)ss1`, the TGI with NCI-H23 lung was > 100 µM; with SR leukemia, 34 µM; in the test on SF-539 CNS, 32.8 µM; with MALME-3M melanoma it was 27.1 µM; in the test on SW-620 colon it was 18.8 µM; with SN12C renal it was 25.4 µM. Moreover, the TGI amounted to 30.4 µM in the test with SF-268 CNS, 23.4 µM in the test with UACC-62 melanoma, 47.9 µM with HCC-2998 colon and 46.3 µM with NCI-H460 lung.
In the case of `CC/C(CC(=O)CCC(=O)Nc1ccccc1[N+](=O)[O-])=N/NC(=O)C[n+]1ccccc1`, the TGI in the test on NCI-H23 lung, with SR leukemia, in the test with SF-539 CNS, with MALME-3M melanoma, with SW-620 colon and in the test with SN12C renal was > 100 µM each time. For the same compound, the TGI with SF-268 CNS, in the test on UACC-62 melanoma, with HCC-2998 colon and in the test on NCI-H460 lung was > 100 µM each time.
`CN1C(=O)C(=O)c2cc3c(c4c2c1cc1ccccc14)OCO3`: the TGI in the test on NCI-H23 lung was > 100 µM; in the test with SR leukemia, 54.8 µM; in the test on SF-539 CNS, > 100 µM; with MALME-3M melanoma, > 100 µM; with SW-620 colon it was > 100 µM; in the test on SN12C renal it was > 100 µM. Also, the TGI is > 100 µM with SF-268 CNS, 38.5 µM in the test on UACC-62 melanoma, > 100 µM in the test with HCC-2998 colon and > 100 µM in the test with NCI-H460 lung.
Regarding `COC1=CC(=O)C2C(C1=O)C(c1ccccc1)[C@H]2C` (some centres not stated), the TGI with NCI-H23 lung is > 100 µM; in the test with SR leukemia, > 100 µM; in the test with SF-539 CNS it was > 100 µM; in the test with MALME-3M melanoma, 57 µM; with SW-620 colon, 36.6 µM; with SF-268 CNS, > 100 µM. The TGI with UACC-62 melanoma, in the test on HCC-2998 colon and in the test on NCI-H460 lung was > 100 µM each time.
Regarding `O=Cc1cccc2c1Oc1c(cccc1C(=O)O)S2`, the TGI in the test on NCI-H23 lung, with SR leukemia, with SF-539 CNS, with MALME-3M melanoma, in the test on SW-620 colon and with SN12C renal was > 100 µM throughout. Further, the TGI in the test with SF-268 CNS, in the test on UACC-62 melanoma, in the test with HCC-2998 colon and with NCI-H460 lung was > 100 µM in each case.
Consider `Cc1cc(C)c(NC(=S)NC(=O)c2ccccc2)cc1C`, for which the TGI in the test with NCI-H23 lung, in the test with SR leukemia, with SF-539 CNS, with MALME-3M melanoma, with SW-620 colon and in the test on SN12C renal was > 100 µM throughout. The TGI in the test on SF-268 CNS, in the test on UACC-62 melanoma, in the test with HCC-2998 colon and with NCI-H460 lung was > 100 µM each time.
For the compound `O=C1C=CC(=O)c2cc(Sc3ccccc3)c(=O)ccc21`, the TGI in the test with NCI-H23 lung was 37 µM; in the test on SR leukemia it was 5.96 µM; in the test on SF-539 CNS it was 37 µM; in the test with MALME-3M melanoma it was 36.4 µM; in the test on SW-620 colon it was 11.7 µM; in the test on SN12C renal, 33.9 µM. For the same compound, the TGI with SF-268 CNS turned out to be 44.4 µM; in the test on UACC-62 melanoma, 30.4 µM; in the test with HCC-2998 colon, 35.3 µM; in the test with NCI-H460 lung, 47.6 µM.
Turning to `COc1cc(CNC2c3cc4c(cc3C(c3cc(OC)c(OC)c(OC)c3)[C@H]3C(=O)OCC23)OCO4)cc(OC)c1OC` (some centres not stated), the TGI with NCI-H23 lung is 0.77 µM; with SR leukemia, > 100 µM; with SF-539 CNS, 0.403 µM; with MALME-3M melanoma, > 100 µM; in the test with SW-620 colon, > 100 µM; with SN12C renal, > 100 µM. Also, the results for the TGI with SF-268 CNS, in the test with UACC-62 melanoma and in the test on HCC-2998 colon were > 100 µM, 0.651 µM and 13.1 µM, respectively.
`CCN(CC)CCCNC(=O)c1c2c(n3ccccc13)C(=O)c1ncccc1C2=O`: the GI50 in the test on NCI-H23 lung is 0.252 µM; in the test on SR leukemia, 0.485 µM; in the test with SF-539 CNS it was 1.07 µM; in the test with MALME-3M melanoma, 0.0823 µM; in the test on SW-620 colon it was 0.367 µM; in the test on SF-268 CNS, 1.11 µM. The GI50 is 0.472 µM in the test with UACC-62 melanoma, 0.388 µM in the test with HCC-2998 colon and 0.225 µM in the test with NCI-H460 lung. The TGI in the test on NCI-H23 lung was 1.99 µM; with SR leukemia it was > 100 µM; with SF-539 CNS, 2.45 µM; in the test on MALME-3M melanoma, 0.425 µM; in the test on SW-620 colon, 1.67 µM; with SF-268 CNS it was 7.09 µM. The TGI turned out to be 2.21 µM in the test with UACC-62 melanoma, 1.65 µM with HCC-2998 colon and 1.75 µM in the test with NCI-H460 lung.
On to `CCN(CC)CCCC(C)N=C(C1=C(C(=NC(C)CCCN(CC)CC)c2cccc(OC)c2)C(=O)NC1=O)c1cccc(OC)c1` (configuration not stated), for which the GI50 with NCI-H23 lung was 2.52 µM; in the test with SR leukemia it was 1.36 µM; in the test with MALME-3M melanoma, 1.11 µM; in the test on SW-620 colon it was 0.71 µM; with SN12C renal, 2.38 µM; in the test on SF-268 CNS, 1.97 µM. Further, the values for the GI50 with UACC-62 melanoma, with HCC-2998 colon and in the test on NCI-H460 lung were 7.71 µM, 1.05 µM and 0.841 µM, respectively. Moreover, the TGI in the test on NCI-H23 lung worked out at 9.11 µM; with SR leukemia, 4.31 µM; with MALME-3M melanoma it was 2.07 µM; with SW-620 colon, 2.38 µM; in the test on SN12C renal, 14.3 µM; in the test on SF-268 CNS it was 8.29 µM. Besides, the TGI was found to be 15 µM in the test on UACC-62 melanoma, 2.2 µM in the test on HCC-2998 colon and 2.13 µM in the test on NCI-H460 lung.
Take `COC(=O)c1cc(O)c2c(c1C(=O)OC)C[C@H]1[C@@H]3CC=C4C[C@@H](O)CC[C@]4(C)[C@H]3CC[C@]21C`: the GI50 is 3.5 µM in the test on NCI-H23 lung; 3.41 µM with SR leukemia; 2.1 µM with SF-539 CNS; 2.71 µM with MALME-3M melanoma; 3.48 µM in the test with SW-620 colon; 3.57 µM in the test on SN12C renal. The GI50 with SF-268 CNS is 3.13 µM; in the test with HCC-2998 colon it was 3.74 µM; in the test with NCI-H460 lung it was 3.24 µM. In addition, the TGI in the test on NCI-H23 lung was 23.5 µM; in the test on SR leukemia, > 100 µM; in the test on SF-539 CNS it was 6.65 µM; in the test with MALME-3M melanoma it was 8.15 µM; in the test on SW-620 colon it was 17.6 µM; in the test on SN12C renal, 26.8 µM. For the same compound, the results for the TGI with SF-268 CNS, in the test on HCC-2998 colon and with NCI-H460 lung were 13 µM, 16 µM and 12.7 µM, respectively.
